Assays:
[1] = system: MOLT-4; test: Compound was tested for in vitro inhibitory activity against HIV replication in MOLT-4 cells; format: functional, cell-based; conditions: Homo sapiens
[2] = biological target: Human immunodeficiency virus type 1 protease (Human immunodeficiency virus 1, UniProt Q72874); test: Inhibitory activity against HIV-1 protease; conditions: read-out: Ki app

CC(C)c1c[nH]c([C@H](Cc2ccccc2)C[C@H](O)[C@H](Cc2ccccc2)NC(=O)[C@@H](NC(=O)OCc2ccccc2)[C@H](C)O)n1
IC50 [1]: 11 nM
Ki [2]: 1.4 nM

CNC(=O)c1c[nH]c([C@H](Cc2ccccc2)C[C@H](O)[C@H](Cc2ccccc2)NC(=O)OC(C)(C)C)n1
Ki [2]: 3700 nM

CC(=O)N[C@@H](C(=O)N[C@@H](Cc1ccccc1)[C@@H](O)C[C@@H](Cc1ccccc1)c1nc(C(C)C)c[nH]1)C(C)C
Ki [2]: 150 nM

CC(C)(C)OC(=O)N[C@@H](Cc1ccccc1)[C@@H](O)C[C@@H](Cc1ccccc1)c1nccs1
Ki [2]: 3000 nM

CC(C)(C)OC(=O)N[C@@H](Cc1ccccc1)[C@@H](O)C[C@@H](Cc1ccccc1)c1nc(C(=O)C2CCCC2)c[nH]1
Ki [2]: 150 nM

CCC(O)c1cnc([C@H](Cc2ccccc2)C[C@H](O)[C@H](Cc2ccccc2)NC(=O)OC(C)(C)C)s1 (some centres not stated)
Ki [2]: 720 nM

CC(C)c1cnc([C@H](Cc2ccccc2)C[C@H](O)[C@H](Cc2ccccc2)NC(=O)[C@@H](NC(=O)OCc2ccccc2)C(C)C)[nH]1
IC50 [1]: 100 nM
Ki [2]: 0.6 nM

CC(=O)N[C@H](C(=O)N[C@@H](Cc1ccccc1)[C@@H](O)C[C@@H](Cc1ccccc1)c1ncc(C(C)C)[nH]1)C(C)C
IC50 [1]: 40 nM
Ki [2]: 1 nM

CC(C)OC(=O)N[C@H](C(=O)N[C@@H](Cc1ccccc1)[C@@H](O)C[C@@H](Cc1ccccc1)c1ncc(C(C)C)[nH]1)C(C)C
IC50 [1]: 134 nM
Ki [2]: 7.9 nM

CC(C)c1cnc([C@H](Cc2ccccc2)C[C@H](O)[C@H](Cc2ccccc2)NC(=O)[C@@H](NC(=O)OC(C)(C)C)C(C)C)[nH]1
Ki [2]: 300 nM

CC(C)(C)OC(=O)N[C@@H](Cc1ccccc1)[C@@H](O)C[C@@H](Cc1ccccc1)c1ncc(C(=O)c2ccccc2)[nH]1
Ki [2]: 7800 nM

CCOC(=O)N[C@H](C(=O)N[C@@H](Cc1ccccc1)[C@@H](O)C[C@@H](Cc1ccccc1)c1nc(C(C)C)c[nH]1)C(C)C
IC50 [1]: 77 nM
Ki [2]: 2.8 nM

CCCCc1cnc([C@H](Cc2ccccc2)C[C@H](O)[C@H](Cc2ccccc2)NC(=O)OC(C)(C)C)s1
Ki [2]: 26000 nM

CC(C)(C)OC(=O)N[C@@H](Cc1ccccc1)[C@@H](O)C[C@@H](Cc1ccccc1)c1nc[nH]n1
Ki [2]: 5800 nM

COC(=O)N[C@H](C(=O)N[C@@H](Cc1ccccc1)[C@@H](O)C[C@@H](Cc1ccccc1)c1nc(C(C)C)c[nH]1)C(C)C
IC50 [1]: 50 nM
Ki [2]: 2.1 nM

COC(=O)c1cnc([C@H](Cc2ccccc2)C[C@H](O)[C@H](Cc2ccccc2)NC(=O)OC(C)(C)C)[nH]1
Ki [2]: 1800 nM

CCC(C)C(=O)c1c[nH]c([C@H](Cc2ccccc2)C[C@H](O)[C@H](Cc2ccccc2)NC(=O)OC(C)(C)C)n1 (some centres not stated)
IC50 [1]: 950 nM
Ki [2]: 53 nM

CC(C)c1c[nH]c([C@H](Cc2ccccc2)C[C@H](O)[C@H](Cc2ccccc2)NC(=O)[C@@H](NC=O)C(C)C)n1
Ki [2]: 4.6 nM

CCC(=O)c1cnc([C@H](Cc2ccccc2)C[C@H](O)[C@H](Cc2ccccc2)NC(=O)OC(C)(C)C)s1
Ki [2]: 3700 nM

CCc1cnc([C@H](Cc2ccccc2)C[C@H](O)[C@H](Cc2ccccc2)NC(=O)OC(C)(C)C)s1
Ki [2]: 2000 nM

CCC(CC)C(=O)c1cnc([C@H](Cc2ccccc2)C[C@H](O)[C@H](Cc2ccccc2)NC(=O)OC(C)(C)C)[nH]1
IC50 [1]: 850 nM
Ki [2]: 46 nM

CCCc1cnc([C@H](Cc2ccccc2)C[C@H](O)[C@H](Cc2ccccc2)NC(=O)OC(C)(C)C)s1 (stereo in doubt; form 1)
Ki [2]: 700 nM

CCCc1cnc([C@H](Cc2ccccc2)C[C@H](O)[C@H](Cc2ccccc2)NC(=O)OC(C)(C)C)s1 (stereo in doubt; form 2)
Ki [2]: 410 nM

CCCc1cnc([C@H](Cc2ccccc2)C[C@H](O)[C@H](Cc2ccccc2)NC(=O)OC(C)(C)C)s1 (stereo in doubt; form 3)
Ki [2]: 4600 nM

Source: ChEMBL document CHEMBL1128000, “Synthesis and antiviral activity of a novel class of HIV-1 protease inhibitors containing a heterocyclic P1-P2 amide bond isostere” (Bioorg Med Chem Lett, 1994)
